Laboratory results published in patent publication US9656971B2, “COMT inhibitors” (Hoffmann-La Roche Inc., priority 2012, dated 2017).

Target: T1, Rec. human COMT (Homo sapiens, UniProt P21964)
T1 sequence (P21964 1-271): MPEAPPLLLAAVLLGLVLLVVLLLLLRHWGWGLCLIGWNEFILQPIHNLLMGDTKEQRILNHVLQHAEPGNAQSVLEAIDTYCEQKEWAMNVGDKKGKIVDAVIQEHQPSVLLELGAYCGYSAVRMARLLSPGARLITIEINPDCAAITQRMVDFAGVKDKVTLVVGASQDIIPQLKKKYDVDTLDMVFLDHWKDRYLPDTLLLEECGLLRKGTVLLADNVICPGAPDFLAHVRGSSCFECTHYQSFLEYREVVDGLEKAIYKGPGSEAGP
Assay: COMT-Fluorescence Assay
Format: biochemical
Settings: COMT-fluorescence assay, rec. human COMT 25 nM, 4-Nitrocatechol-Alexa488 200 nM, SAM 500 nM; read-out: IC50
Description: This intramolecular interaction is disturbed if the 4-Nitrocatechol is methylated. […] This increase of fluorescence intensity can be followed in a kinetic measurement. The slope in the linear range of the kinetic is calculated. An inhibitor compound decreases the slope.
Signal [rfu/min]=(rfu(end-point)−rfu(startpoint))/incubation_time_#2

| SMILES | IC50 [nM] |
| --- | --- |
| CN1CCN(CCOCc2ccccc2-c2cc(O)c3nc[nH]c(=O)c3c2)CC1 [Example 240, 8-Hydroxy-6-(2-((2-(4-methylpiperazin-1-yl)ethoxy)methyl)phenyl)quinazolin-4(3H)-one] | 30 |
| O=c1[nH]cnc2c(O)cc(-c3ccccc3COCCC3CCN(CC(F)(F)F)CC3)c(Cl)c12 [Example 120, 5-Chloro-8-hydroxy-6-(2-((2-(1-(2,2,2-trifluoroethyl)piperidin-4-yl)ethoxy)methyl)phenyl)quinazolin-4(3H)-one 2,2,2-trifluoroacetate] | 90 |
| O=c1[nH]cnc2c(O)ccc(C(F)(F)F)c12 [Example 42, 8-Hydroxy-5-(trifluoromethyl)quinazolin-4(3H)-one] | 1030 |
| O=c1[nH]cnc2c(O)cc(-c3cscn3)cc12 [Example 91, 8-Hydroxy-6-(thiazol-4-yl)quinazolin-4(3H)-one] | 100 |
| COCc1c(C(=O)N2CCN(C)CC2)cccc1-c1cc(O)c2nc[nH]c(=O)c2c1 [Example 235, 8-Hydroxy-6-[2-methoxymethyl-3-(4-methyl-piperazine-1-carbonyl)-phenyl]-3H-quinazolin-4-one] | 30 |
| Cn1cncc1-c1cc(O)c2nc[nH]c(=O)c2c1 [Example 79, 8-Hydroxy-6-(1-methyl-1H-imidazol-5-yl)quinazolin-4(3H)-one] | 150 |
| COC(=O)c1cc(C)c(-c2cc(O)c3nc[nH]c(=O)c3c2)s1 [Example 81, Methyl 5-(8-hydroxy-4-oxo-3,4-dihydroquinazolin-6-yl)-4-methylthiophene-2-carboxylate] | 10 |
| COCCn1cc(-c2cc(O)c3nc[nH]c(=O)c3c2)cn1 [Example 47, 8-Hydroxy-6-(1-(2-methoxyethyl)-1H-pyrazol-4-yl)quinazolin-4(3H)-one] | 60 |
| CS(=O)(=O)c1ccc(Cl)c(-c2cc(O)c3nc[nH]c(=O)c3c2)c1 [Example 48, 6-(2-Chloro-5-methanesulfonyl-phenyl)-8-hydroxy-3H-quinazolin-4-one] | 50 |
| CCOC(=O)c1cc(O)c2nc[nH]c(=O)c2c1 [Example 6, Ethyl 8-hydroxy-4-oxo-3,4-dihydroquinazoline-6-carboxylate] | 20 |
| Cc1nc(-c2cc(O)c3nc[nH]c(=O)c3c2)cs1 [Example 85, 8-Hydroxy-6-(2-methylthiazol-4-yl)quinazolin-4(3H)-one] | 170 |
| COc1ccc(C(F)(F)F)cc1-c1cc(O)c2nc[nH]c(=O)c2c1 [Example 26, 8-Hydroxy-6-(2-methoxy-5-(trifluoromethyl)phenyl)quinazolin-4(3H)-one] | 190 |
| Cc1nc(C)c(-c2cc(O)c3nc[nH]c(=O)c3c2)s1 [Example 178, 6-(2,4-Dimethylthiazol-5-yl)-8-hydroxyquinazolin-4(3H)-one] | 10 |
| O=C(NCCN1CCOCC1)c1ccc(-c2cc(O)c3nc[nH]c(=O)c3c2)cc1 [Example 172, 4-(8-Hydroxy-4-oxo-3,4-dihydroquinazolin-6-yl)-N-(2-morpholinoethyl)benzamide] | 20 |
| Cc1c(-c2cc(O)c3nc[nH]c(=O)c3c2)c(C(F)(F)F)nn1C [Example 95, 6-(1,5-Dimethyl-3-(trifluoromethyl)-1H-pyrazol-4-yl)-8-hydroxyquinazolin-4(3H)-one] | 970 |
| O=c1[nH]cnc2c(O)c(Cl)c(Br)cc12 [Example 246, 6-Bromo-7-chloro-8-hydroxyquinazolin-4(3H)-one] | 1590 |
| COCc1ccc(C(=O)N2CCN(C)CC2)cc1-c1cc(O)c2nc[nH]c(=O)c2c1 [Example 233, 8-Hydroxy-6-[2-methoxymethyl-5-(4-methyl-piperazine-1-carbonyl)-phenyl]-3H-quinazolin-4-one; compound with formic acid] | 1170 |
| O=c1[nH]cnc2c(O)cc(-c3cccc(N4CCOCC4)n3)cc12 [Example 62, 8-Hydroxy-6-(6-morpholinopyridin-2-yl)quinazolin-4(3H)-one] | 10 |
| O=c1[nH]cnc2c(O)cc(-c3cncs3)cc12 [Example 90, 8-Hydroxy-6-(thiazol-5-yl)quinazolin-4(3H)-one] | 20 |
| Cc1cscc1-c1cc(O)c2nc[nH]c(=O)c2c1 [Example 164, 8-Hydroxy-6-(4-methylthiophen-3-yl)quinazolin-4(3H)-one] | 20 |
| Cn1cc(-c2cc(O)c3nc[nH]c(=O)c3c2)c(C(F)(F)F)n1 [Example 82, 8-Hydroxy-6-(1-methyl-3-(trifluoromethyl)-1H-pyrazol-4-yl)quinazolin-4(3H)-one] | 40 |

More lines, now with the values ahead:

| IC50 [nM] | SMILES |
| --- | --- |
| 260 | Cc1ccc(-c2c(-c3ccc(F)cc3)c(Br)c(O)c3nc[nH]c(=O)c23)cc1 [Example 51, 7-bromo-6-(4-fluorophenyl)-8-hydroxy-5-p-tolylquinazolin-4(3H)-one] |
| 80 | O=c1[nH]cnc2c(O)cc(-c3ccc4c(c3)CCNC4)cc12 [Example 171, 8-Hydroxy-6-(1,2,3,4-tetrahydroisoquinolin-6-yl)quinazolin-4(3H)-one] |
| 10 | O=c1[nH]cnc2c(O)cc(C#Cc3ccccc3)cc12 [Example 23, 8-Hydroxy-6-(phenylethynyl)quinazolin-4(3H)-one] |
| 100 | O=C(c1ccccc1)c1ccccc1-c1cc(O)c2nc[nH]c(=O)c2c1 [Example 99, 6-(2-Benzoylphenyl)-8-hydroxyquinazolin-4(3H)-one] |
| 20 | CN(C)c1ccc(-c2cc(O)c3nc[nH]c(=O)c3c2)cc1 [Example 147, 6-(4-Dimethylamino-phenyl)-8-hydroxy-3H-quinazolin-4-one] |
| 180 | CS(=O)(=O)CCc1ccccc1-c1cc(O)c2nc[nH]c(=O)c2c1 [Example 116, 8-Hydroxy-6-(2-(2-(methylsulfonyl)ethyl)phenyl)quinazolin-4(3H)-one 2,2,2-trifluoroacetate] |
| 370 | CN(C)c1ccccc1-c1cc(O)c2nc[nH]c(=O)c2c1 [Example 209, 6-(2-(Dimethylamino)phenyl)-8-hydroxyquinazolin-4(3H)-one] |
| 150 | O=c1[nH]cnc2c(O)c(F)c(Br)c(-c3ccc(F)cc3)c12 [Example 244, 6-Bromo-7-fluoro-5-(4-fluoro-phenyl)-8-hydroxy-3H-quinazolin-4-one] |
| 640 | O=c1[nH]cnc2c(O)cc(-c3ccccc3-c3ccccc3)cc12 [Example 214, 6-(Biphenyl-2-yl)-8-hydroxyquinazolin-4(3H)-one] |
| 60 | Cc1ccc(-c2cc(O)c3nc[nH]c(=O)c3c2)cn1 [Example 166, 8-Hydroxy-6-(6-methylpyridin-3-yl)quinazolin-4(3H)-one] |
| 20 | Cc1ccc(-c2cc(O)c3nc[nH]c(=O)c3c2)c(C)n1 [Example 202, 6-(2,6-Dimethyl-pyridin-3-yl)-8-hydroxy-3H-quinazolin-4-one] |
| 30 | O=c1[nH]cnc2c(O)cc(-c3cnc4ccccn34)cc12 [Example 86, 8-Hydroxy-6-(imidazo[1,2-a]pyridin-3-yl)quinazolin-4(3H)-one] |
| 20 | COCc1ccccc1-c1cc(O)c2nc[nH]c(=O)c2c1 [Example 220, 8-Hydroxy-6-(2-(methoxymethyl)phenyl)quinazolin-4(3H)-one] |
| 20 | O=c1[nH]cnc2c(O)cc(-c3ccc(F)c(F)c3F)cc12 [Example 31, 8-Hydroxy-6-(2,3,4-trifluoro-phenyl)-3H-quinazolin-4-one] |
| 1280 | CN1CCN(C(=O)c2ccccc2-c2cc(O)c3nc[nH]c(=O)c3c2)CC1 [Example 193, 8-Hydroxy-6-[2-(4-methyl-piperazine-1-carbonyl)-phenyl]-3H-quinazolin-4-one] |
| 30 | O=c1[nH]cnc2c(O)cc(-c3ccc(F)cc3)c([N+](=O)[O-])c12 [Example 252, 6-(4-Fluoro-phenyl)-8-hydroxy-5-nitro-3H-quinazolin-4-one] |
| 120 | O=c1[nH]cnc2c(O)cc(Br)c(F)c12 [Example 196, 6-Bromo-5-fluoro-8-hydroxyquinazolin-4(3H)-one] |
| 50 | COc1ccccc1-c1cc(O)c2nc[nH]c(=O)c2c1 [Example 161, 8-Hydroxy-6-(2-methoxyphenyl)quinazolin-4(3H)-one] |
| 20 | O=c1[nH]cnc2c(O)cc(-c3ccc(F)cc3)c(-c3ccccc3)c12 [Example 49, 6-(4-Fluorophenyl)-8-hydroxy-5-phenylquinazolin-4(3H)-one] |
| 10 | O=c1[nH]cnc2c(O)cc(C3=Cc4ccccc4CC3)cc12 [Example 7, 6-(3,4-Dihydro-naphthalen-2-yl)-8-hydroxy-3H-quinazolin-4-one] |

Same assay, conditions: IC50, COMT-fluorescence assay, rec. human COMT 25 nM, 4-Nitrocatechol-Alexa488 200 nM, SAM 500 nM

| IC50 [nM] | SMILES |
| --- | --- |
| 70 | CCOc1cc(Cl)ccc1-c1cc(O)c2nc[nH]c(=O)c2c1 [Example 215, 6-(4-Chloro-2-ethoxyphenyl)-8-hydroxyquinazolin-4(3H)-one] |
| 20 | O=c1[nH]cnc2c(O)cc(-c3ccc4c(c3)OCC4)cc12 [Example 25, 6-(2,3-Dihydrobenzofuran-6-yl)-8-hydroxyquinazolin-4(3H)-one] |
| 10 | O=c1[nH]cnc2c(O)cc(-c3ccc(N4CCOCC4)cc3)cc12 [Example 142, 8-Hydroxy-6-(4-morpholin-4-yl-phenyl)-3H-quinazolin-4-one] |
| 50 | CN(C)CCc1cccc(-c2cc(O)c3nc[nH]c(=O)c3c2)c1 [Example 247, 6-(3-(2-(Dimethylamino)ethyl)phenyl)-8-hydroxyquinazolin-4(3H)-one] |
| 40 | O=c1[nH]cnc2c(O)cc(-c3ccc(Cl)cc3)cc12 [Example 131, 6-(4-Chlorophenyl)-8-hydroxyquinazolin-4(3H)-one] |
